These results are taken from patent US20180193361A1, “GUT ANTI-INFLAMMATORY AGENTS FOR REGULATION OF HIGH BLOOD GLUCOSE LEVELS” (UNIVERSITY HEALTH NETWORK, priority 2015, published 2018).

The subject of test [1] is HFD-fed C57BL/6 mice. In words: Metabolic studies, mice fed HFD or HFD 5-ASA from 6 weeks of age (preventative). It counts as in vivo. The protocol:
Mice. Mice were fed either NCD (15 kcal % fat) or HFD (Research Diets, 60 kcal % fat, irradiated) starting at 6 weeks of age. All studies were performed under the approval of Animal User Protocols by the Animal Care Committee at the University Health Network. Mice were maintained in a pathogen-free, temperature-controlled environment on a 12-hour light and dark cycle. All mice used in comparative studies were male, age-matched, and litter mates where possible. […] We confirmed T cell-specific floxing of the PPARγ gene in Lck-Cre+ PPARγfl/fl mice by qPCR with a minimum of at least 90% reduction in PPARγ expression. […] We measured body weights, GTTs, ITTs, serum insulin, and fat cell diameter as previously described (Winer et al., 2009a). All GTTs were performed with a 1.5 g/kg glucose i.p. injection unless indicated otherwise. We fixed VAT, colons and small bowel ileums, from mice for 48 h in 10% buffered formalin before processing and hematoxylin/eosin staining. We enumerated crown-like structures (CLSs) in VAT by counting the number of adipocytes completely surrounded by immune cells identified on hematoxylin/eosin staining per 100× low power field. Analysis of histochemical stains was performed in a blinded fashion by two certified pathologists (S.W. and D.W.).

The test system of test [2] is HFD-fed C57BL/6 mice. In words: Food intake and metabolic cage studies, HFD or HFD 5-ASA. In kind it is in vivo. The conditions noted are these: HFD vs HFD 5-ASA, 14 weeks. On the procedure: Mice. Mice were fed either NCD (15 kcal % fat) or HFD (Research Diets, 60 kcal % fat, irradiated) starting at 6 weeks of age. All studies were performed under the approval of Animal User Protocols by the Animal Care Committee at the University Health Network. Mice were maintained in a pathogen-free, temperature-controlled environment on a 12-hour light and dark cycle. All mice used in comparative studies were male, age-matched, and litter mates where possible. […] We confirmed T cell-specific floxing of the PPARγ gene in Lck-Cre+ PPARγfl/fl mice by qPCR with a minimum of at least 90% reduction in PPARγ expression. […] We placed mice in automated metabolic cages (Oxymax Systems, Columbus Instruments) for 48 hours with airflow held constant at 0.5 L/min. (Revelo et al., 2014). […] We measured metabolic activity using indirect calorimetry, recording maximal O2 consumption (VO2), CO2 production (VCO2), and heat production normalized to body weight. Respiratory exchange ratio (RER) was calculated as […]. The data shown are calculated for light and dark measurements as an average over 24 hours by combining light and dark measurements. Ambulatory activity was measured by the breaking of infrared laser beams in the XY plane.

Test [3] has as its system bowel and VAT immune cell populations. Briefly: Immune cell populations in NCD vs NCD 5-ASA mice. In kind it is in vivo. The conditions noted are these: bowels or VATs, NCD 5-ASA vs untreated NCD mice. An excerpt:
Isolation of bowel immune cells. For isolation of small intestine lamina propria immune cells, we used the protocol described by Fritz et al (Fritz et al., 2012), and processed approximately 10 cm from the distal end of the small intestine (jejunum and ileum). For the isolation of colonic lamina propria immune cells, we used the protocol described by Geddes et al (Geddes et al., 2011). Following lamina propria isolations, we passed immune cells through 70 μm strainers, and used them for flow cytometry.
We isolated VAT-associated immune cells as previously described (Winer et al., 2009a).
We stained single cell suspensions for 30 min on ice with commercial antibodies. Flow cytometry antibodies including CD45.2 (104), CD3 (145-2C11), CD4 (GK1.5), CD8 (53-6.7), CD25 (PC61), γδTcR (GL3), Foxp3 (150D), IL-17 (TC11-18H10.1), IFNγ XMG1.2), α4β7 (DATK32), CCR9 (CW-1.2), CD11b (M1/70), F4/80 (BM8), CD11c (N418), CD206 (C068C2), Gr-1 (RB6-8C5), IL-7Rα (A7R34), B220 (RA3-6B2), Thy1.2 (30-H12), NKp46 (29A1.4), and Sca-1 (D7) were purchased from Biolegend. Intracellular staining was performed using a Foxp3 staining buffer kit (eBioscience). We acquired data on a Fortessa flow cytometer (BD Biosciences) and analyzed it with FlowJo software (Tree Star). We gated ILCs as described (Kirchberger et al., 2013).

Test [4] relates to Rag1null mice. In words: Metabolic studies, Rag1null mice on HFD 5-ASA. In kind it is in vivo. As to conditions: HFD vs HFD 5-ASA 1500 mg/kg/day, 8 weeks. The protocol:
Mice. Mice were fed either NCD (15 kcal % fat) or HFD (Research Diets, 60 kcal % fat, irradiated) starting at 6 weeks of age. All studies were performed under the approval of Animal User Protocols by the Animal Care Committee at the University Health Network. Mice were maintained in a pathogen-free, temperature-controlled environment on a 12-hour light and dark cycle. All mice used in comparative studies were male, age-matched, and litter mates where possible.
We measured body weights, GTTs, ITTs, serum insulin, and fat cell diameter as previously described (Winer et al., 2009a). All GTTs were performed with a 1.5 g/kg glucose i.p. injection unless indicated otherwise.

The test system of test [5] is gut epithelial barrier. As to conditions: models of IBD (Di Paolo et al., 1996; Liu et al., 2009); cited from earlier work.
Where [6] appears, read: HFD vs HFD 5-ASA 1500 mg/kg/day in diet, after 12-14 weeks.
The mark [7] stands for this setting: HFD vs HFD 5-ASA 1500 mg/kg/day, 14 weeks.

Consider `Nc1ccc(O)c(C(=O)O)c1` [5-ASA, 5-aminosalicylic acid], for which, in test [1] (5-ASA dose range 150 mg/kg/day up to 1500 mg/kg/day in mice), the glucose tolerance entry is on record as “beneficial effects”. Also, in test [1] (HFD vs HFD 5-ASA 1500 mg/kg/day in diet), the liver steatosis result is “reduced”. For the same compound, in test [1] (setting [6]), the VAT weight result is recorded as “no significant difference”, the adipocyte size entry was “no significant difference”, the body weight entry was “no significant difference” and the “number of crown-like structures in VAT” value was “no significant difference”. Moreover, in test [1] (setting [6]), the organ weights result was “no significant difference”. For the same compound, in test [1] (setting [7]), the fasting glucose entry is on record as “significant improvements”, the fasting insulin result is listed as “significant improvements”, the “glucose tolerance (GTT)” value is given as “significant improvements” and the “insulin tolerance (ITT)” value is on record as “significant improvements”. In test [1] (lower dose 150 mg/kg/day in HFD, 24 weeks), the “effects on metabolic disease (GTT, ITT)” value is “beneficial effects”. Further, in test [2], the carbon dioxide output result is on record as “no difference”, the food intake entry is reported as “no difference” and the oxygen consumption result is “no difference”. For the same compound, the “significant anti-inflammatory effects on immune cell populations” value in test [3] was “not seen”. In test [4], the IR result was “no effect”, the body weight entry is “no effect” and the glucose tolerance entry is recorded as “no effect”. Besides, in test [5], the “intactness of the gut epithelial barrier” value is recorded as “beneficial effects”.
